Experimental data as given in paper PMC3626398, “Strategies Aimed at Nox4 Oxidase Inhibition Employing Peptides from Nox4 B-Loop and C-Terminus and p22^phox N-Terminus: An Elusive Target” (International Journal of Hypertension, 2013).

Legend:
Nox4 = assay: H2O2-generating activity of lysed COS-Nox4 cells (Amplex Red fluorescence); format: biochemical, human; conditions: for inhibition of H2O2 production (Nox4 activity): COS-Nox4 cell lysate preincubated with peptide 1 to 50 μM for 15 min at 24°C, mean of 3 experiments (Figure 1(f)); for effect on Nox4 activity (H2O2 production): COS-Nox4 cell lysate preincubated with various concentrations of C-terminal tail peptide for 15 min at 24°C, mean of 3 experiments (Figure 2(b)); for inhibition of Nox4 activity (Nox4-derived H2O2 production): COS-Nox4 cell lysate preincubated with various concentrations of p22phox N-terminal peptide for 15 min at 24°C, mean of 3 experiments (Figure 3(b),(c))
Method: Cell transfection was carried out using Lipofectamine LTX and Plus reagent (Invitrogen, Carlsbad, CA, USA), according to the manufacturer's instructions. COS-22 cells were transiently transfected with pcDNA3.1/Hygro-hNox4 (COS-Nox4 cells). Western blot experiments were performed to validate the expression of Nox4 as we reported previously. Twenty-four hours after transfection, cells were harvested by incubating with 0.05% trypsin/EDTA for 5 min at 37°C. Following addition of DMEM/10% FBS to neutralize the trypsin, the cells were pelleted by centrifugation at 1000 ×g for 5 min at 4°C and used for the experiments.
H2O2 production was quantified in lysed COS-Nox4 cells as described previously. […] COS-Nox4 and COS-22 cells were suspended to a concentration of 5 × 10^7 cells/mL in ice-cold disruption buffer (PBS containing 0.1 mM EDTA, 10% glycerol, protease inhibitor cocktail, and 0.1 mM PMSF). The cells were lysed by five freeze/thaw cycles and passed through a 30-gauge needle five times to further lyse the cells. Throughout all these procedures, extreme care was taken to maintain the lysate at a temperature close to 0°C. Incubation of COS-Nox4 cell lysate (10 μg/100 μL) with peptides was performed in assay buffer (25 mM Hepes, pH 7.4, containing 120 mM NaCl, 3 mM KCl, 1 mM MgCl2, 25 μM FAD, 0.1 mM Amplex Red, and 0.32 U/mL of HRP) for 15 or 60 min at room temperature on an orbital shaker (120 movements/min), before the addition of 36 μM NADPH, to initiate H2O2 production. […] Fluorescence measurements were made using a Biotek Synergy 4 Hybrid Multi-Mode Microplate Reader (excitation wavelength: 560 nm; emission wavelength: 590 nm). A standard curve of known H2O2 concentrations was developed using the Amplex Red assay (as per the manufacturer's instructions) and was used to quantify H2O2 production in lysed COS-Nox4 cells. The reaction was monitored at room temperature for 40 min. The emission increase was linear during this interval. The rate of H2O2 production was interpolated from the standard curve and is […] nmol H2O2/min/mg protein. The effect of a peptide on Nox4-derived H2O2 production was expressed as percent inhibition of Nox4, which was calculated by considering H2O2 production by control mixtures in the absence of peptide as 100%.

Nox2 = conditions: ref [8]; cited from earlier work
Excerpt: With this in mind, in the current study, we tested whether application of a peptide mimic (B90–98) from the variable region of Nox4 B-loop interferes with the activity of Nox4. An important premise for this work was ...

**Q.** For `c1ccc2c(c1)[I+]c1ccccc1-2` [DPI, diphenyleneiodonium chloride, reference compound], which “inhibition of Nox4-dependent activity (rate of H2O2 generation)” value (Nox4; COS-Nox4 cell lysate, DPI 50 μM, 36 μM NADPH, Amplex Red/HRP, monitored at 24°C for 40 min, mean of 3 experiments) is on record?
**A.** The value was ~ 90%.

**Q.** With “B77–91: 15-mer peptide from the Nox4 B-loop, residues 77–91 (RTLLAYLRGSQKVPS; UniProt Q9NPH5 77-91, looked up, fragment)” as the molecule, how does the “inhibition of H2O2 production (Nox4 activity)” value (“inhibition of H2O2 production” for short) (Nox4; Amplex Red) read?
**A.** Its value is “did not inhibit”.

**Q.** Which “inhibition of H2O2 production” value (Nox4; Amplex Red) does the source give for “B82–96: 15-mer peptide from the Nox4 B-loop, residues 82–96 (YLRGSQKVPSRRTRR; UniProt Q9NPH5 82-96, looked up, fragment)” here?
**A.** The value was “did not inhibit”.

**Q.** With “B90–98: nonamer peptide mimic from the variable region of Nox4 B-loop, residues 90–98 (PSRRTRRLL; UniProt Q9NPH5 90-98, looked up, fragment)” as the molecule, how does the “inhibition of Nox4-derived H2O2 production” value (Nox4; COS-Nox4 cell lysate preincubated with peptide 0.1-100 μM for 15 min at 24°C, 36 μM NADPH, Amplex Red, mean of 3 experiments (Figure 1(d))) read?
**A.** The value was “did not inhibit”.

**Q.** Which “inhibition of H2O2 production” value (Nox4; Amplex Red) does the source give for “B92–106: 15-mer peptide from the Nox4 B-loop, residues 92–106 (RRTRRLLDKSRTFHI; UniProt Q9NPH5 92-106, looked up, fragment)” here?
**A.** Its value is “did not inhibit”.

**Q.** For “C555–562: octameric Nox4 C-terminal tail peptide, residues 555–562 (TLHKLSNQ; UniProt Q9NPH5 555-562, looked up, fragment)”, which “effect on Nox4 activity (H2O2 production)” value (from here on “effect on Nox4 activity”) (Nox4; Amplex Red) is on record?
**A.** Its value is “did not affect”.

**Q.** With “C560–567: octameric Nox4 C-terminal tail peptide, residues 560–567 (SNQNNSYG; UniProt Q9NPH5 560-567, looked up, fragment)” as the molecule, how does the “effect on Nox4 activity” value (Nox4; Amplex Red) read?
**A.** The value was “did not affect”.

**Q.** With “C565–572: octameric Nox4 C-terminal tail peptide, residues 565–572 (SYGTRFEY; UniProt Q9NPH5 565-572, looked up, fragment)” as the molecule, how does the “effect on Nox4 activity” value (Nox4; Amplex Red) read?
**A.** The value was “did not affect”.

**Q.** Which “effect on Nox4 activity” value (Nox4; Amplex Red) does the source give for “C570–578: nonameric Nox4 C-terminal tail peptide, residues 570–578 (FEYNKESFS; UniProt Q9NPH5 570-578, looked up, fragment)” here?
**A.** The value was “did not affect”.

**Q.** With “Nox2ds: peptide mimicking the B-loop region of Nox2 (amino acids 86–94), earlier work of the authors (CSTRVRRQL; UniProt P04839 86-94, looked up, fragment)” as the molecule, how does the “inhibition of Nox2-derived O2•− production” value (Nox2) read?
**A.** The value was “selectively and potently inhibits”.

**Q.** Which “inhibition of Nox4 activity (H2O2 production)” value (Nox4; COS-Nox4 cell lysate preincubated with peptide 0.3 to 30 μM for 15 min at 24°C, Amplex Red, mean of 3 experiments (Figure 1(e))) does the source give for “PSRRTRELL [R96E mutant version of B90–98, R96E mutant version of B90–98 (…)]” here?
**A.** Its value is “did not inhibit”.

**Q.** For “RAMRAN [p22 W6/9R, p22phox 6–11 peptide with tryptophans mutated to arginine (RAMRAN)]”, which “inhibition of Nox4 activity (Nox4-derived H2O2 production)” value (Nox4; Amplex Red) is on record?
**A.** The value was “did not inhibit”.

**Q.** With WAMWAN [p22 WT 6–11] as the molecule, how does the “inhibition of Nox4 activity (Nox4-derived H2O2 production)” value (Nox4; Amplex Red) read?
**A.** Its value is “did not inhibit”.
